Entries after “also recorded” stand apart in the source; their conditions may differ. Ends that are not written are not given here.
Key:
SMAR1 [1] = target: T1, SMAR1 (Homo sapiens, UniProt Q8N9N5); assay: SMAR1 stabilization across a variety of cancer cell lines (MCF7, SW620, NCI-H522, HCT116p53-/-, MDA-MB231); type: cell-based; conditions: different concentrations
T1 construct: HCT116 cells treated with different available peptides for 48 hours stabilized SMAR1 expression; endogenous in cells; host or cells: HCT116 p53+/+, HCT116 p53-/-, MCF7, SW620, NCI-H522, MDA-MB231
T1 sequence (Q8N9N5 1-519): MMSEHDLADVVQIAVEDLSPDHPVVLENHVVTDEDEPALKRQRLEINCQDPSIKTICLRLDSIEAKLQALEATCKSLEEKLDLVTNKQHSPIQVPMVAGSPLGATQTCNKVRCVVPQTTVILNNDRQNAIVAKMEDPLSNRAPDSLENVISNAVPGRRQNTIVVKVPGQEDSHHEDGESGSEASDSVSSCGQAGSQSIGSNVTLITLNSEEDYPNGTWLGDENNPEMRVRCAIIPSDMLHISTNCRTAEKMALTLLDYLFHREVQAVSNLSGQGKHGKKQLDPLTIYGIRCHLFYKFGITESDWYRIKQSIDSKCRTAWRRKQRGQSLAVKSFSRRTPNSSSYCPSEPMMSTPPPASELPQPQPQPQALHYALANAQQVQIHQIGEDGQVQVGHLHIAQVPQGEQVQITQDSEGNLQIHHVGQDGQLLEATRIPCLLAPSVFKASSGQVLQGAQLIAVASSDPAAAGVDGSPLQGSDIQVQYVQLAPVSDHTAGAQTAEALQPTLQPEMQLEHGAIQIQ

SMAR1 [2] = target: T1, SMAR1; assay: SMAR1 stabilization/induction in HCT116 cells (western blot); type: cell-based; conditions: peptide treatment 48 hours
[3] = tested on: MDA-MB231 breast cancer cells; assay: Wound healing / cell migration assay; type: cell-based, Human; conditions: MDA-MB231, 10 μg peptide, recorded up to 16 hours, vs DMSO control
Protocol: MDA-MB231 breast cancer cells (1×10^^6) were seeded in a 6 well plate and maintained in L15 DMEM medium supplemented with 10% FBS and 100 Units of Penicillin Streptomycin antibiotics for 24 hours. Cells were treated for 24 hours with AT-01C and AT-01D peptides of 10 μg each. Post 24 hours wound was created and washed with medium to remove the cells detached during wound creation. Fresh peptides were added plate was mounted at the microscope chamber maintaining the temperature of 37° C. Images were acquired in NIKON Confocal Microscope for 5 minutes interval. Time lapse was set for 16 hours and images were compiled to make the video movie of the cell migration.

SMAR1 [4] = assay: Peptide interaction assay by ITC, SMAR1; type: binding; conditions: 25° C.
HCT116 cells = assay: Colony formation assay; type: cell-based
Protocol: 200 HCT116 cells seeded in 35 mm petri dishes and cultured for 24 hours. 10 μg of AT-01D added fresh every two days up to day 12th. Cell were washed with 1× Phosphate Buffer Saline and then fixed using 3% Para-formaldehyde for 10 minutes. Cells were washed and stained with Crystal violet for 30 minutes. After washing with PBS plates were kept inverted and air dried. Colonies were counted using inverted bright field microscope (Nikon). A group of cells were identified to be a colony that consists of more than 50 cells.

SMAR1 [5] = target: T1, SMAR1; assay: SMAR1 induction in HCT116p53-/- cells; type: cell-based
SMAR1 [6] = assay: PCR of SMAR1 mRNA in HCT116p53+/+ cells; conditions: 48 hours
MDA-MB231 cells = assay: Annexin V staining by flow cytometry (FACS); type: cell-based, Human; conditions: after peptide treatment
[7] = tested on: HT29 cells (adenocarcinoma); assay: HT29 xenograft in SCID mice; type: in vivo; conditions: 50 mg/kg daily, 21 days of treatment
Protocol: (§1) SCID mice were injected subcutaneously with either 1 million HCT116 cells (carcinoma) or HT29 cells (adenocarcinoma) both of which are colon cancer cells. After 2 weeks tumors developed could be seen and the process of injecting AT-01C peptide was initiated. For HCT116 xenograft mice model AT-01C peptide of 25 mg/kg body weight of mice was injected intra-peritoneally. In case of HT29 xenograft mice model AT-01C peptide of 50 mg/kg body weight of mice was injected intra-peritoneally. Stock concentration of the AT-01C was 10 mg/ml. Both the mice group were injected with AT-01C peptide for 21 days daily just 5 mm away from the tumors. The daily injection was performed by injecting AT-01C surrounding the tumors being developed. After 21 days of injection tumors excised and their weight and volume was measured.
(§2) Tumors raised in SCID mice by subcutaneously injecting either 1 million HCT116 cells or HT29 cells (Xenograft model). After tumors developed and were visible to eyes AT-01C peptide treatment was started. For tumors raised using HCT116 colon cancer cells AT-01C of 25 mg/kg body weight of mice was injected intra-peritoneally. AT-01C peptide of 50 mg/kg body weight was injected intra-peritoneally as treatment for tumors raised with HT29 cells. AT-01C was injected daily surrounding the tumor 5 mm away from it. After 21 days of peptide injection, mice were sacrificed and tumors excised. […]

HCT116 cells (carcinoma) = assay: HCT116 xenograft in SCID mice; type: in vivo; conditions: 25 mg/kg daily, 21 days of treatment
Protocol: as §1, §2

[8] = target: T2, Scaffold Matrix Attachment Region Binding Protein 1 (SMAR1), full length (UniProt Q8N9N5 1-519); assay: ITC, 25 C
T2 construct: This molecule also stands for endogenous SMAR1 of HCT116 cells in the functional rows
T2 sequence: T1 sequence (Q8N9N5 1-519)

## NAIRGSVTPAVSQFN (The sequence is developed from MPT63 of M. tuberculosis) [AT-01D, 15 amino acid peptide derived from AT01]
SMAR1 [1]
  SMAR1 stabilization: heightened effectiveness
SMAR1 [2]
  SMAR1 stabilization / induction: heightened effectiveness; also recorded: superior induction of SMAR1; also recorded: stabilized SMAR1 the most; also recorded: significantly induce expression of SMAR1
[3]
  cell migration: mitigation of anticipated cell migration; also recorded: attenuate migration
SMAR1 [4]
  interaction with SMAR1 (ITC): positive results
HCT116 cells; HCT116, 10 μg, 12 days, vs DMSO control
  colony formation / rate of cell proliferation: delayed or decreased
HCT116 cells; HCT116, till the 12th day
  apoptotic cells in colony formation culture: No apoptotic cells or group of cells observed
SMAR1 [5]
  induction of SMAR1: induction of SMAR1 was observed
SMAR1 [6]
  transcriptional regulation of SMAR1 (PCR): failed to control the transcriptional regulation of SMAR1
MDA-MB231 cells
  cell death (Annexin V): no signs of cell death

## GQVWEATATVNAIRGSVTPAVSQFNARTAD (The sequence is developed from MPT63 of M. tuberculosis) [AT-01, 30 amino acid peptide synthesized from MPT-63 of M. tuberculosis]
SMAR1 [2]
  SMAR1 stabilization / induction: very less or no induction of SMAR1
SMAR1 [4]
  interaction with SMAR1 (ITC): failed to interact with SMAR1

## ATATVNAIRGSVTPAVSQFN [AT-01C]
[7]
  survival of mice: All the mice survived
HCT116 cells (carcinoma)
  survival of mice: All the mice survived

B1: AT-01 (peptide)
peptide: GQVWEATATVNAIRGSVTPAVSQFNARTAD
notes: also called parent 30 amino acid peptide
[8]
  binding result: no binding

Reference: patent publication US20190382454A1, “A MODIFIED PEPTIDE AS AN ANTICANCER AGENT” (Amrita Therapeutics Limited, priority 2015, published 2019)
